One data set deals with PI3K p110 beta/p85 alpha (Homo sapiens, UniProt P42338). In words: Inhibition of human PI3Kbeta (p110beta/p85alpha) by ADP accumulation based HTRF assay. Type of data set: protein-complex assay. To be noted: read-out: Ki(app). (In general: In TR-FRET formats the signal depends on donor and acceptor labels being close together.)
Data set [1] has as its target Phosphatidylinositol 4,5-bisphosphate 3-kinase catalytic subunit gamma isoform (Homo sapiens, UniProt P48736). As to the kind of experiment: Inhibition of human PI3Kgamma by ADP accumulation based HTRF assay. Conditions: read-out: Ki(app).
Data set [2] concerns the target Phosphatidylinositol 4,5-bisphosphate 3-kinase catalytic subunit alpha isoform (Homo sapiens, UniProt P42336, E542K). In words: Inhibition of human PI3Kalpha E542K mutant by ADP accumulation based HTRF assay. To be noted: read-out: Ki(app).
Data set [3] concerns the target Phosphatidylinositol 4,5-bisphosphate 3-kinase catalytic subunit alpha isoform (Homo sapiens, UniProt P42336, E545K). In words: Inhibition of human PI3Kalpha E545K mutant by ADP accumulation based HTRF assay. Conditions: read-out: Ki(app).
For data set [4], the target named is Phosphatidylinositol 4,5-bisphosphate 3-kinase catalytic subunit alpha isoform (Homo sapiens, UniProt P42336, H1047R). In words: Inhibition of human PI3Kalpha H1047R mutant by ADP accumulation based HTRF assay. To be noted: read-out: Ki(app).
Data set [5] concerns Serine/threonine-protein kinase B-raf (Homo sapiens), P15056 [V600E]. In words: Inhibition of BRAF V600E mutant at 1 uM.
Sequence of Serine/threonine-protein kinase B-raf (Homo sapiens), P15056 [V600E] (P15056 whole entry V600E): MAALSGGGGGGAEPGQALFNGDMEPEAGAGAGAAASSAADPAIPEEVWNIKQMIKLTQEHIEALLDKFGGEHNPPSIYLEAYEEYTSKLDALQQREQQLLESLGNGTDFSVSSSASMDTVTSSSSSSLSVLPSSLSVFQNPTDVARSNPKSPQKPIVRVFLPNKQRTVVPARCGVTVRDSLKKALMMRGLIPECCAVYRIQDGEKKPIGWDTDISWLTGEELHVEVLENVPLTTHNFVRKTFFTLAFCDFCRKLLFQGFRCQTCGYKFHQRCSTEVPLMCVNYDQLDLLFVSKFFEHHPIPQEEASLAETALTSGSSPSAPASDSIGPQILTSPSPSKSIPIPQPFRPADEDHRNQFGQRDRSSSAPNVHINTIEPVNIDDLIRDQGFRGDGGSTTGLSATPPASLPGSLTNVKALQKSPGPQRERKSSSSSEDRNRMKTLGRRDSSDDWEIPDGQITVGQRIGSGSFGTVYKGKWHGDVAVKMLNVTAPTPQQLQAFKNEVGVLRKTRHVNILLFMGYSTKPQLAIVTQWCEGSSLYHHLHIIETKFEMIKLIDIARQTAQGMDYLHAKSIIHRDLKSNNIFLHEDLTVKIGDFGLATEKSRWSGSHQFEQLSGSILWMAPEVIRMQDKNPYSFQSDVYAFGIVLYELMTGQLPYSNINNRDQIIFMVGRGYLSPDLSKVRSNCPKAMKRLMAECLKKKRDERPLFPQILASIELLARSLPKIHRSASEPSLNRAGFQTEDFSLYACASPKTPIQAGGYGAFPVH
In data set [6] the target is Focal adhesion kinase 1 (Homo sapiens) (UniProt Q05397). As to the kind of experiment: Inhibition of FAK at 1 uM.
Sequence of Focal adhesion kinase 1 (Homo sapiens) (Q05397 2-1052 limits assumed): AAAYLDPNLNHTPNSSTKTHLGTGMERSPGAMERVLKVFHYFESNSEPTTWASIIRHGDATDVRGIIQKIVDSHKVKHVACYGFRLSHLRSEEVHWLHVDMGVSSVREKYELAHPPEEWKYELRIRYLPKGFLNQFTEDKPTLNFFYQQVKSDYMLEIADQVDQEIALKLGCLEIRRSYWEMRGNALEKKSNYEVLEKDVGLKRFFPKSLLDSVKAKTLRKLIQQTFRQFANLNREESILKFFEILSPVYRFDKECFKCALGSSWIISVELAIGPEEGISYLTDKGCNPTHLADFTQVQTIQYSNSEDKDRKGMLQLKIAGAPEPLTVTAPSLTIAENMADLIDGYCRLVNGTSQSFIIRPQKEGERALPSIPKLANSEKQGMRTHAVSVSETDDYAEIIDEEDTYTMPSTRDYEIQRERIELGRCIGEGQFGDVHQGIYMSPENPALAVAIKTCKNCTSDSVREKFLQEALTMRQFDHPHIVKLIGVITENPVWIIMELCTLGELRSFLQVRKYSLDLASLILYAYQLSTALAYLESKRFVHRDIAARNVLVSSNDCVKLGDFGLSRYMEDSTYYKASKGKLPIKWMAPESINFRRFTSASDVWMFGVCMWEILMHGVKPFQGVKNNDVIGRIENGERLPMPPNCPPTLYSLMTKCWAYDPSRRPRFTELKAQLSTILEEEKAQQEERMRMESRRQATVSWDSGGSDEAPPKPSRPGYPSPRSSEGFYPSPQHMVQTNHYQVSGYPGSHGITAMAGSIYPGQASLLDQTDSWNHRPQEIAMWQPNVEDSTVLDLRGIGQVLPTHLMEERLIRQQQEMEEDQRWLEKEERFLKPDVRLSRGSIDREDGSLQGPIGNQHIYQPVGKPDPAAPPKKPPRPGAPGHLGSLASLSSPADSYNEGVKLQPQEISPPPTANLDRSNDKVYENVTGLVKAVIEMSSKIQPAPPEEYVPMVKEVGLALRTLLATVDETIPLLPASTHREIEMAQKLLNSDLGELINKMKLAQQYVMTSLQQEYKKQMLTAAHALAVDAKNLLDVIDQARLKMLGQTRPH
The target in data set [7] is Fibroblast growth factor receptor 1 (Homo sapiens) (UniProt P11362). In words: Inhibition of FGFR1 at 1 uM.
Sequence of Fibroblast growth factor receptor 1 (Homo sapiens) (P11362 22-822 limits assumed): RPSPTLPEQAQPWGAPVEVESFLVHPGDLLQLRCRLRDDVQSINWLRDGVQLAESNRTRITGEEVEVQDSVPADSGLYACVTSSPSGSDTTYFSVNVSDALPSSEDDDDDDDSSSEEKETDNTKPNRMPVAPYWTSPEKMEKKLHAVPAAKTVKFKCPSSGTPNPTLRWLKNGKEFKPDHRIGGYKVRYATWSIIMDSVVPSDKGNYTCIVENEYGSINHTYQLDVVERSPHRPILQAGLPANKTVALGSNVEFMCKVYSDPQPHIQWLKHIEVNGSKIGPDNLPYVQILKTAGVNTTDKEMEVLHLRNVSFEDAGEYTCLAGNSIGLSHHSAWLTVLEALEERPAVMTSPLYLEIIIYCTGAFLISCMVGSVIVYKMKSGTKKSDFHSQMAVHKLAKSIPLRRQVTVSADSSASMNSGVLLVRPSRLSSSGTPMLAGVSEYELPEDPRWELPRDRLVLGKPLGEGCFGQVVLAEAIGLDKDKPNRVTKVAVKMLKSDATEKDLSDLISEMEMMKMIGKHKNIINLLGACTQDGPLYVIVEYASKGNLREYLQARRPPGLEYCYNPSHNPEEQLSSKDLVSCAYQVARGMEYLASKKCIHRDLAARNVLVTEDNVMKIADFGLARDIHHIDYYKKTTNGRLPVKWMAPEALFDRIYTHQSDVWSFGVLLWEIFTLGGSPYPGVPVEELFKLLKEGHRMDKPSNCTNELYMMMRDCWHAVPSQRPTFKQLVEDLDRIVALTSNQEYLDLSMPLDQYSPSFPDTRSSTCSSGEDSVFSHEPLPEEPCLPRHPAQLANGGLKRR
Data set [8] deals with T1, Inhibitor of nuclear factor kappa-B kinase subunit beta (Homo sapiens) (UniProt O14920).
T1 sequence (whole entry): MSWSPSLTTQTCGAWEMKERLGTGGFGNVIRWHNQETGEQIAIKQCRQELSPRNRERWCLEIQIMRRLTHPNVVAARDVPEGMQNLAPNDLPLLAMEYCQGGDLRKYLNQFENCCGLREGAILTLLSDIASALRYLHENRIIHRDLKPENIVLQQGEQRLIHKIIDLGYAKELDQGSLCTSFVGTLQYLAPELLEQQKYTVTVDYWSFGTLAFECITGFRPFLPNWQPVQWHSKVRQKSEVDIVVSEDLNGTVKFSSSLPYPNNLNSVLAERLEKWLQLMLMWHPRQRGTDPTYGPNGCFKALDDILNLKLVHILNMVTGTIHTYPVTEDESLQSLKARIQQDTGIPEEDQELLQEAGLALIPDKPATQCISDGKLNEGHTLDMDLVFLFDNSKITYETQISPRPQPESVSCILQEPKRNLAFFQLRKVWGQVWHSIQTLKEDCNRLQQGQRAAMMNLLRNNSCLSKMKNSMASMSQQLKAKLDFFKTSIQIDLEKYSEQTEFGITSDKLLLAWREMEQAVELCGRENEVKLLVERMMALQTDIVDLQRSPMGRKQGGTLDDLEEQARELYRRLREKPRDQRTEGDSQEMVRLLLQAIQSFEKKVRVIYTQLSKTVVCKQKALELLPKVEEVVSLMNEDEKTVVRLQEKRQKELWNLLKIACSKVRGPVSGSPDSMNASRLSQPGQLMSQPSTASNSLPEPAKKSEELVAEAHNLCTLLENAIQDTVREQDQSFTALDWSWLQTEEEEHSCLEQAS
As to the kind of experiment: Inhibition of IKKbeta at 1 uM.

Data set [9] is described as follows: Inhibition of PDGFR at 1 uM.
Data set [10] deals with Serine/threonine-protein kinase B-raf (Homo sapiens), P15056 [V600E]. In words: Inhibition of BRAF V600E mutant at 5 uM.
The target of data set [11] is Insulin-like growth factor 1 receptor (Homo sapiens) (UniProt P08069). As to the kind of experiment: Inhibition of IGF1R at 5 uM.
Sequence of Insulin-like growth factor 1 receptor (Homo sapiens) (P08069 31-736 limits assumed): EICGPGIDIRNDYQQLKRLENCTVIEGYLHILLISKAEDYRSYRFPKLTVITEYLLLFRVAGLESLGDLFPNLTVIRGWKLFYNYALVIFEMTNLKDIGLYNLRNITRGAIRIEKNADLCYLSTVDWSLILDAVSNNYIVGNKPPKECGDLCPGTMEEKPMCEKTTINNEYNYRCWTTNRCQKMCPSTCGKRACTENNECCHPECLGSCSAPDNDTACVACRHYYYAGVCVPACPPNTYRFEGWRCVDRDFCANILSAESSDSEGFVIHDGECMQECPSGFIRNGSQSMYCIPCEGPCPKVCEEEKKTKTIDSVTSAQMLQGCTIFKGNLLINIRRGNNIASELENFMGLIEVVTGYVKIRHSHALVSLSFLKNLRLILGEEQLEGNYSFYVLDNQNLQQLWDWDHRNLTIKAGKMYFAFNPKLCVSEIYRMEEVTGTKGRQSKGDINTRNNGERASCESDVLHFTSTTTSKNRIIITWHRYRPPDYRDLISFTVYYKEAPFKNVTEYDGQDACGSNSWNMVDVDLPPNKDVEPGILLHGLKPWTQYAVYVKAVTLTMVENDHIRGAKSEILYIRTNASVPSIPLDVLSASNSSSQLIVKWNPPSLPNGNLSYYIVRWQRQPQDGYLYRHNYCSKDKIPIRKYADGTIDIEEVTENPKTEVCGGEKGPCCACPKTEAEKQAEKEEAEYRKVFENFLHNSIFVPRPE
Sequence of Insulin-like growth factor 1 receptor (Homo sapiens) (P08069 741-1367 limits assumed): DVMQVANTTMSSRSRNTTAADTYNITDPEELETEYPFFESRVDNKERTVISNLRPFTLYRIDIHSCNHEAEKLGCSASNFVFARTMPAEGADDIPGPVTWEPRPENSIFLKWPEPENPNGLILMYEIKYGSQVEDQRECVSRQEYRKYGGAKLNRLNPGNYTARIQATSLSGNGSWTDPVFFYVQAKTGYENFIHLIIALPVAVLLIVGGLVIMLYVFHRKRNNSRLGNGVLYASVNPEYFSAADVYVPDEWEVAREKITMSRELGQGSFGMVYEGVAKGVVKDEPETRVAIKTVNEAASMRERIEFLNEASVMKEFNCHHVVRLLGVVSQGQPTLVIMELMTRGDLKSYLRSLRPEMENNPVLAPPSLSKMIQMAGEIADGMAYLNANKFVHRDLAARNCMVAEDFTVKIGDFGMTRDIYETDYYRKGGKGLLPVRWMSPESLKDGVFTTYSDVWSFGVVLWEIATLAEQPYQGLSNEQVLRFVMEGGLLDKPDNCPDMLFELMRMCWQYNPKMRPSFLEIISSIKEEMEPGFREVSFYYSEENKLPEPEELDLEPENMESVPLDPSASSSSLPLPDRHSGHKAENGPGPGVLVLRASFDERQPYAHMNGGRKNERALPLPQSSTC
For data set [12], the target named is T1, Inhibitor of nuclear factor kappa-B kinase subunit beta (Homo sapiens). In words: Inhibition of IKKbeta at 5 uM.
For data set [13], the target named is Mast/stem cell growth factor receptor Kit (Homo sapiens) (UniProt P10721). As to the kind of experiment: Inhibition of KIT at 5 uM.
Sequence of Mast/stem cell growth factor receptor Kit (Homo sapiens) (P10721 whole entry): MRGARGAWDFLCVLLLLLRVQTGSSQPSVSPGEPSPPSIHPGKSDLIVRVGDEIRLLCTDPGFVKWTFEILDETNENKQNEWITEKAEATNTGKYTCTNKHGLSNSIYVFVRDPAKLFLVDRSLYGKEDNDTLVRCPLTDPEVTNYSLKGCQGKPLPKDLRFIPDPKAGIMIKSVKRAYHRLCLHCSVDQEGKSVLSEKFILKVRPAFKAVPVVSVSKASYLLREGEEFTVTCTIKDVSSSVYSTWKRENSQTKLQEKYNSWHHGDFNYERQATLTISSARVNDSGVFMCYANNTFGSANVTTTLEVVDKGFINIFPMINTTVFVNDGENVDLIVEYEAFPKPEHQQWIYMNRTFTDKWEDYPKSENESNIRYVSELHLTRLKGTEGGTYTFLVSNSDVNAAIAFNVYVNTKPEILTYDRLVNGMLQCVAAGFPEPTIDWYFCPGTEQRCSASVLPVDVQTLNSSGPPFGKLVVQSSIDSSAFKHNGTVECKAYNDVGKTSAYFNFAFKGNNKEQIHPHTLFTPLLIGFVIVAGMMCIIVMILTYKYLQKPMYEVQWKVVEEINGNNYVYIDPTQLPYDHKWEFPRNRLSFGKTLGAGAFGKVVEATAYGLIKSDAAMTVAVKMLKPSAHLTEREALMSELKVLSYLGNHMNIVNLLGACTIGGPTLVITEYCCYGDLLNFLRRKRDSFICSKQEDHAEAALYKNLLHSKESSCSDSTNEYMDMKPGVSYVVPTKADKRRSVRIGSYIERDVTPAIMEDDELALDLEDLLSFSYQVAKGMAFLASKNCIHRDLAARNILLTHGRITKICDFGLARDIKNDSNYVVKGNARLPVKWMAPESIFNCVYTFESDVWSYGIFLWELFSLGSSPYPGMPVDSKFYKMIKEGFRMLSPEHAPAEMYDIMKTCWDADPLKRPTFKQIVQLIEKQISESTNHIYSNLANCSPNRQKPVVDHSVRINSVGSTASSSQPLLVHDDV
A short description of data set [14]: Clearance in BALB-C mouse. To be noted: in vivo. The class given is ADME, organism-based.
The nature of data set [15]: Oral bioavailability in BALB-C mouse. The class given is ADME, organism-based. To be noted: in vivo.
The subject of data set [16] is Mus musculus. In words: In-vivo inhibition of PI3Kalpha-mediated AKT Ser 473 phosphorylation in lung of tamoxifen-induced mouse tumor model at 50 mg/kg, po measured 2 to 4 hrs post dose. The class given is functional.
In data set [17] the test system is Mus musculus. In words: Antitumor activity in tamoxifen-induced mouse tumor model assessed as tumor growth inhibition at 50 mg/kg/day, po for 3 weeks by computed tomography. The class given is functional. To be noted: 504 h, read-out: GI.
For data set [18], the system named is Mus musculus. As to the kind of experiment: Antitumor activity in tamoxifen-induced mouse tumor model assessed as reduction in lung [18F]FDG uptake at 50 mg/kg/day, po for 3 weeks by PET-CT method. The class given is functional, organism-based.
Data set [19] relates to Mus musculus. As to the kind of experiment: Antitumor activity in tamoxifen-induced mouse tumor model assessed as reduction in lung metabolic activity at 50 mg/kg/day, po for 3 weeks by [18F]FDG uptake based PET-CT method. The class given is functional, organism-based.
Data set [20] addresses PI3-kinase p110-delta/p85-alpha (Homo sapiens, UniProt O00329). In words: Inhibition of human PI3Kdelta (p110delta/p85alpha) by ADP accumulation based HTRF assay. Type of data set: protein-complex assay. To be noted: read-out: Ki(app).

Activity calls are given as the source filed them. The calls are words filed in the database; no cut-off is given here.

The term inhibition denotes the drop in the measured response relative to a control, in per cent. Higher therefore signals strong suppression. A word on the clearance: it is a measure of how efficiently the substance is removed, as volume per time. What is called bioavailability is dose-corrected exposure relative to a reference, in per cent. Read a low bioavailability as poor availability.

Consider `CS(=O)(=O)N1CCN(Cc2cn3c(Cl)c(-c4cnc(N)nc4)nc(N4CCOCC4)c3n2)CC1`, for which the Ki at PI3K p110 beta/p85 alpha was 212 nM; in data set [1], 84 nM; in [2], 2.77 nM; in data set [3] it was 1.73 nM; in [4] it was 3.07 nM. Further, the inhibition in data set [5], in data set [6], in [7], in data set [8], in [9] and in data set [10] was under 30% each time. Moreover, the inhibition in [11], in data set [12] and in data set [13] was under 30% each time.

With `CS(=O)(=O)N1CCN(Cc2nc3c(N4CCOCC4)nc(-c4cnc(N)nc4)cn3c2Br)CC1`, the inhibition in data set [5], in [6], in data set [7], in data set [8], in data set [9] and in data set [10] was under 30% each time. Also, the inhibition in data set [11], in [12] and in data set [13] was under 30% throughout.

Turning to `CS(=O)(=O)N1CCN(Cc2cn3cc(-c4cnc(N)nc4)nc(N4CCOCC4)c3n2)CC1`, the inhibition in [5], in data set [6], in data set [7], in [8], in [9] and in data set [10] was under 30% in each case. Besides, the inhibition in data set [11], in [12] and in data set [13] was under 30% in each case. Besides, in data set [14], the clearance was 10 mL/min/kg. For the same compound, in data set [15], the bioavailability stood at 90%. In the data set with Mus musculus [16], this compound yielded an inhibition in vivo at 50 mg/kg of over 50%. Also, in the data set with Mus musculus [17], the inhibition in vivo at 50 mg/kg/day is 51%. For the same compound, the outcome in the data set with Mus musculus [18] and in the data set on Mus musculus [19] was Active.

Take `Cc1nc(N)ncc1-c1cn2cc(CN3CCN(S(C)(=O)=O)CC3)nc2c(N2CCOCC2)n1`: the inhibition in data set [5], in data set [6], in [7], in data set [8], in [9] and in [10] was under 30% throughout. The inhibition in data set [11], in data set [12] and in data set [13] was under 30% each time.

Take `Cc1c(CN2CCN(S(C)(=O)=O)CC2)nc2c(N3CCOCC3)nc(-c3cnc(N)nc3)cn12`: the Ki stood at 202 nM at PI3K p110 beta/p85 alpha, 15.6 nM in [20] and 59.8 nM in [1]. The inhibition in data set [5], in [6], in data set [7], in data set [8], in data set [9] and in data set [10] was under 30% throughout. Further, the inhibition in [11], in data set [12] and in [13] was under 30% throughout.

The values above are taken from ChEMBL document CHEMBL2086238, “Identification of ETP-46321, a potent and orally bioavailable PI3K α, δ inhibitor” (Bioorg Med Chem Lett, 2012).
